Experimental data published in paper PMC9689682, “Tenebrio molitor Proteins-Derived DPP-4 Inhibitory Peptides: Preparation, Identification, and Molecular Binding Mechanism” (Foods, 2022).

Experiments:
DPP-4 [1] = target: T1, DPP-4 (Homo sapiens, UniProt P27487); test: DPP-4 inhibition activity assay (Gly-Pro-p-nitroanilide substrate, OD 405 nm); format: biochemical; settings: final concentration 1 mg/mL; n = 3; Figure 4A
T1 construct: purchased Millipore Sigma (Burlington, MA, USA)
Experimental: The inhibition of each sample on DPP-4 was assayed according to a previously described method. Briefly, 20 μL of each sample solution, 50 μL of Tris-HCl buffer (pH8.0, 100 mM), and 100 μL of substrate were mixed in a well of a 96-well plate, then incubated at 37 °C for 10 min. Afterward, the 30 μL of DPP-IV solution was added, then placed at 37 °C for 40 min incubation. Afterward, the optical density was recorded at 405 nm using a BioTek Synergy H1 microplate reader (BioTek, Winooski, VT, USA). The inhibitory effect of the samples on DPP-4 was calculated according to a previously described equation [27].

DPP-4 [2] = target: T1, DPP-4; settings: Bombyx mori protein-derived peptide; cited from earlier work
Excerpt: GLP-1 and GIP are two crucial incretins, which have mainly contributed to the insulin response after meal intake. Suppressing the activity of DPP-4 can increase the level of active incretins, thereby decreasing blood glucose in diabetic patients. Based on the consideration of the adverse effects caused by the chemically synthesized inhibitors, some peptides with inhibitory effects on DPP-4 activity obtained from natural proteins, including milk, egg, grain, edible insects, and aquatic proteins have been widely reported. In the current study, the flavourzyme effectivel ... || It has been reported that the length and size of peptides influence their inhibitory activity against DPP-4.

T1 sequence (P27487 whole entry): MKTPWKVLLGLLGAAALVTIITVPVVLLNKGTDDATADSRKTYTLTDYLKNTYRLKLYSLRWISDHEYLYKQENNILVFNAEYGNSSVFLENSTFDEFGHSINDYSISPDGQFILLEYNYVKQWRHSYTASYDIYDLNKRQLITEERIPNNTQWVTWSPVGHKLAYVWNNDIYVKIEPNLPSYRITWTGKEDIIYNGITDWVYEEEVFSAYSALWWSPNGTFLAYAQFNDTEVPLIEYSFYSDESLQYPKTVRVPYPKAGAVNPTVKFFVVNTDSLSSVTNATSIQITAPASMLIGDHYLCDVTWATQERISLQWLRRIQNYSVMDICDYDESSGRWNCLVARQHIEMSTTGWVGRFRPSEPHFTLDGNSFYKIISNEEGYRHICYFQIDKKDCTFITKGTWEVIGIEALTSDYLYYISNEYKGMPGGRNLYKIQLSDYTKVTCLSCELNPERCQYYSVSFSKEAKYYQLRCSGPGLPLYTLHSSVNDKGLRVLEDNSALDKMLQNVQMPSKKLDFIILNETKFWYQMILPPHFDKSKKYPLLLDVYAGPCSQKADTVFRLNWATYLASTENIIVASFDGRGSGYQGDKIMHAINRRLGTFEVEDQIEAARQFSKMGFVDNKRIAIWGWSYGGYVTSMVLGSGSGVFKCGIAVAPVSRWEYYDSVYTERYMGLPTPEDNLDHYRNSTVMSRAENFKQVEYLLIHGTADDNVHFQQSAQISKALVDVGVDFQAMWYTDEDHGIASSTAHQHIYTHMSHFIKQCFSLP

Substance	inhibitory effect of the synthesized peptides on DPP-4 activity (in words) (DPP-4 [1])	IC50 value against DPP-4 (DPP-4 [2])
GLQFPTRPNF [synthesized peptide; origin 86 kDa early-staged encapsulation inducing protein]	weak inhibitory activity	
LPAVTIR		148 µg/mL
NEAYFGFPR [synthesized peptide identified from T. molitor flavourzyme hydrolysate; origin Hexamerin 1]	weak inhibitory activity	
SNGLPFPTRP [synthesized peptide identified from T. molitor flavourzyme hydrolysate; origin Hexamerin 1]	weak inhibitory activity	
